Consider three molecules from US20240181080A1, “METHOD FOR CONTROLLING HETEROGENEITY OF VASCULAR ENDOTHELIAL CELLS BY UTILIZING SYMPATHETIC NERVES” (priority 2021, published 2024).

In assay [1] the target is T1, hM4Di (Homo sapiens, UniProt P08173, A203G/Y113C).
T1 sequence (P08173 1-479 Y113C/A203G): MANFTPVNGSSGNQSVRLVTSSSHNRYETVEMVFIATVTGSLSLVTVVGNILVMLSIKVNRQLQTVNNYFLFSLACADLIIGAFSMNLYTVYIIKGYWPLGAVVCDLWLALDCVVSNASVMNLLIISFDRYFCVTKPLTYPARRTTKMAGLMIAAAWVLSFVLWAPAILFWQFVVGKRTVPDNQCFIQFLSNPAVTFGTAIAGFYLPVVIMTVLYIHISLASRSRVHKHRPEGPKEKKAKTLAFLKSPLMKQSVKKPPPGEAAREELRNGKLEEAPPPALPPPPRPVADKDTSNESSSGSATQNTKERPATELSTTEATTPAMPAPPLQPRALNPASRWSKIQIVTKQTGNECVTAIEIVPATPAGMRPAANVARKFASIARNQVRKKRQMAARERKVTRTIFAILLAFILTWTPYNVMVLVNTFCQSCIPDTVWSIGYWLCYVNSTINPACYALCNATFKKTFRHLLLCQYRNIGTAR
The settings on record: comparator not stated; patent notes structural similarity to clozapine; cited from earlier work.

The target in assay [2] is hM3Dq (Homo sapiens, UniProt P20309, A239G/Y149C). Particulars: comparator not stated; patent notes structural similarity to clozapine; cited from earlier work.
For assay [3], the system named is L-subtype vascular endothelium. Particulars: aged C57BL/6J male mice; prior art; cited from earlier work.
Assay [4] concerns H-subtype bone vascular endothelial cells. Put plainly: Example 1: fluorescence microscopy (CD31, EMCN) of bone vascular endothelial cells at the femoral epiphyseal end, after intraosseous hM3Dq virus and CNO injection. Format: in vivo, TH-Cre transgenic mouse. The settings on record: hM3Dq side vs mCherry control side; CNO 1 mg/kg every 48 h for 4 weeks. On the procedure:
A TH-Cre transgenic mouse aged 4 weeks was selected and anesthetized, and then the skin and muscle on the femur of the mouse were carefully parted. A hole was made in the femur using a small needle to reach the marrow cavity. Using a microsyringe, 1 μL of pAAV-hSyn-DIO-hM3D(Gq)-mCherry with a viral titer of about […] was slowly injected into the long bone marrow cavity of the TH-Cre mouse on one side of the femur in the lower limb through the small hole, serving as an experimental group (recorded as hM3Dq); on the other side, pAAV-hSyn-DIO-mCherry was injected, serving as a control group (recorded as mCherry). […]
After recovery of the mouse and 6 weeks of expression of the gene carried by the virus, CNO was injected (at a dose to achieve a concentration of 1 mg/kg in the mouse) every 48 h for 4 consecutive weeks. […] Data were expressed as (Means±S.E.M.); P<0.05 was considered a significant difference.
CD31 is marked with green fluorescence, and EMCN is marked with red fluorescence; both are markers for H-subtype bone vascular endothelium. The stronger the fluorescence intensity, the more complete the vascular morphology, indicating greater expression of CD31 and EMCN, i.e., the higher number of the H-subtype bone vascular endothelial cells. […]

The nature of assay [5]: Example 1: microCT of the trabecular bone at the femoral epiphyseal end, after intraosseous hM3Dq virus and CNO injection. Particulars: CNO 1 mg/kg every 48 h for 4 weeks. In kind it is in vivo, TH-Cre transgenic mouse.
Assay [6] relates to H-subtype bone vascular endothelial cells. Put plainly: Example 2: fluorescence microscopy (CD31, EMCN) of bone vascular endothelial cells at the femoral epiphyseal end, after intraosseous hM4Di virus and CNO injection. Particulars: hM4Di side vs mCherry control side; CNO 1 mg/kg every 48 h for 4 weeks. In kind it is in vivo, TH-Cre transgenic mouse.
A short description of assay [7]: Example 2: microCT of the trabecular bone at the femoral epiphyseal end, after intraosseous hM4Di virus and CNO injection. Format: in vivo, TH-Cre transgenic mouse. Particulars: CNO 1 mg/kg every 48 h for 4 weeks.

Structures can show the parent of a compound that is named as a salt.

Chain of hM3Dq (P20309 whole entry Y149C/A239G): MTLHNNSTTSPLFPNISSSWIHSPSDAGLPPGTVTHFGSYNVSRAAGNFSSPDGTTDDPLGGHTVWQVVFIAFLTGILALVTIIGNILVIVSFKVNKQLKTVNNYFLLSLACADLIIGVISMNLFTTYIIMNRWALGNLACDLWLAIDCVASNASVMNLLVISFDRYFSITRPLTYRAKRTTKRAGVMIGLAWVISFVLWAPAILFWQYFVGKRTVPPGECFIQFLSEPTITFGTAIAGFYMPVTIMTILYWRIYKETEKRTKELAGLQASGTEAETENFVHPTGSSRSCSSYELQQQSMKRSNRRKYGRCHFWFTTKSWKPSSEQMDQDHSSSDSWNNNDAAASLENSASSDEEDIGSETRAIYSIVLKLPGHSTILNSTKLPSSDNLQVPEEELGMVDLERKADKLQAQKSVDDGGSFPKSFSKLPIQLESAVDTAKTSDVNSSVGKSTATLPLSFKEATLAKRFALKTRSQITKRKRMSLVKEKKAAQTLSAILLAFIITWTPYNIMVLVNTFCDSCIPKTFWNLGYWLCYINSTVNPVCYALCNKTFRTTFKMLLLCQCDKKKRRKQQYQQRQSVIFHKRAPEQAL

For the molecule `CN1CCN(C2=Nc3ccccc3Nc3ccccc32)CC1` [Deschloroclozapine], the “affinity for hM4Di” value in assay [1] is given as “higher”. The “affinity for hM3Dq” value in assay [2] is “higher”.

Consider `CC(=O)N(O)CCCCCNC(=O)CCC(=O)N(O)CCCCCNC(=O)CCC(=O)N(O)CCCCCN` [deferoxamine mesylate], for which, in assay [3], the bone mineral density entry is given as “increasing” and the “reverse transformation of L-subtype vascular endothelium into H-subtype vascular endothelium” value is given as “promotes”.

As to `C[N+]1([O-])CCN(C2=Nc3cc(Cl)ccc3Nc3ccccc32)CC1` [CNO, Clozapine N-oxide], in assay [4], the “number of the H-subtype bone vascular endothelial cells near the long bone growth plate” value is listed as “increased” and the sympathetic nerve activity entry is reported as “activated”. Further, in assay [5], the “bone mass of the trabecular bone” value is “rise”. In assay [6], the “number of the H-subtype bone vascular endothelial cells” value is given as “reduced” and the sympathetic nerve activity entry is on record as “inhibited”. The “bone mass of the trabecular bone” value in assay [7] is listed as “decrease”.
